From US5679684A, “Hydroxyalkylammonium-pyrimidines and nucleoside derivatives, useful as inhibitors of inflammatory cytokines” (Macronex, Inc., priority 1995, dated 1997)

Legend:
IL-6 = assay: Monocyte release of IL-6; format: cell-based, human; set-up: key to EFFECT: NE: No effect; NT: Not tested; INHIB: Inhibition; STIM: Stimulation; IC20: 20% Inhibitory Concentration; EC50: 50% Effective Concentration; TC: Tolerated Concentration; settings: IL6
[1] = test system: human peripheral blood mononuclear cells (PBMC); assay: PBMC proliferation to mitogens (PHA); format: cell-based; set-up: key: NE: No effect; NT: Not tested; INHIB: Inhibition; STIM: Stimulation; IC20: 20% Inhibitory Concentration; EC50: 50% Effective Concentration; TC: Tolerated Concentration
Method: (§1) Human Peripheral Blood Mononuclear Cell (PBMC) Isolation:
(§2) Venous blood is obtained from healthy volunteers and mixed with an equal volume of sterile isotonic saline/10 mM HEPES and placed into 50 ml conical polypropylene tubes in 30 ml aliquots. Each aliquot of diluted blood is underlaid with 20-25 ml of sterile Lymphocyte Separation Medium (LSM; Organon-Technika, Durham, N.C.). The tubes are centrifuged at 400 g for 40 minutes at room temperature. The mononuclear cells at the interface are removed and washed twice in sterile isotonic saline/10 mM HEPES followed by a wash in Hank's Balanced Salt Solution (HBSS) or RPMI without serum, depending on their intended use. Cell concentrations for each donor are determined by counting in a haematology and analyser (Serono-Baker).
PBMC Proliferation to Mitogens (PHA):
PBMC are adjusted to 4×10^6 /ml in complete medium. To each well of a 96 well flat bottom tissue culture plate (Falcon 3072) is added 50 μl of cell suspension. Test materials (diluted in complete medium to 2× the desired final concentration) are added in 100 μl volumes to each well. […] The contents of the wells are harvested onto glass fibre filters using a multiple automated sample harvester (Tomtec), and the incorporated […] determined by liquid scintillation spectrophotometry and represented an cpm (counts per minute) incorporated per well.

MTS = format: cell-based; set-up: key to EFFECT: NE: No effect; NT: Not tested; INHIB: Inhibition; STIM: Stimulation; IC20: 20% Inhibitory Concentration; EC50: 50% Effective Concentration; TC: Tolerated Concentration
monocytes = assay: Inhibition of monocyte chemotaxis; format: cell-based, human; set-up: key to EFFECT: NE: No effect; NT: Not tested; INHIB: Inhibition; STIM: Stimulation; IC20: 20% Inhibitory Concentration; EC50: 50% Effective Concentration; TC: Tolerated Concentration; settings: chemoattractant FMLP
Method: Inhibition of Monocyte Chemotaxis:
Monocytes are prepared as previously described, and resuspended at 5×10^6 cells/ml in HBSS, 0.1% BSA (HBSS-BSA). Fluorophore labeling of the cells is carried out by adding calcein-AM to the above cells at a final concentration of 2 μM. Following a 30 minute incubation at 37° C. in humidified 5% CO2, the labeled monocytes are washed twice and incubated in a range of dilutions of the test materials for 60 minutes at 37° C. in humidified 5% CO2. The pre-treated, calcein-AM loaded cells are then added in triplicate to the wells of the top compartment of a NeuroProbe (Cabin, John, M.D.) 96-well chemotaxis chamber (2×10^5 cells/well) and permitted to migrate through a 10 μm thick bonded polycarbonate membrane (5 μm porosity; NeuroProbe Inc; Cabin, John, M.D.) towards the wells of the lower compartment containing the chemoattractant (FMLP) at 5×10^-9 M. After a 90 minute incubation at 37° C. in a humidified chamber, the wells of the upper chambers are aspirated, the monocyte-associated membrane removed, non-migrating cells wiped off and the filters permitted to air dry to 15 minutes. The number of cells migrating through the membranes are quantified by measuring the fluorescent intensity of the migrating cells in a fluorescent microplate reader (CytoFluor 2300, Millipore Corp., Bedford, Mass.)

PGE2 = assay: Monocyte release of PGE2; format: cell-based, human; set-up: key: NE: No effect; NT: Not tested; INHIB: Inhibition; STIM: Stimulation; IC20: 20% Inhibitory Concentration; EC50: 50% Effective Concentration; TC: Tolerated Concentration; settings: zymosan A stimulated
Method: (§3) Monocyte Release of PGE2, LTB4, and PAF:
(§4) Monocytes isolated as described above, were washed and resuspended in RPM1 containing 5 mg/ml HSA at 2×10^6 cells/ml and added to wells of a 48-well plates. The cells were allowed to adhere for 2 hours then washed in HBSS-BSA-HEPES buffer. Test materials were added at four concentrations (175 μl) for 60 minutes; then the monocytes were stimulated by addition of […] zymosan A (175 μl of 2× desired final concentration added). Supernatant medium was collected from the wells after 90 minutes incubation and stored at -20° C. until assayed. Supernatants were assayed for PGE2, LTB4 or PAF using specific scintillation proximity assays (SPA).

[2] = Endotoxin testing (kinetic chromogenic procedure); set-up: key: NE: No effect; NT: Not tested; INHIB: Inhibition; STIM: Stimulation; IC20: 20% Inhibitory Concentration; EC50: 50% Effective Concentration; TC: Tolerated Concentration
Method: All batches of media and reagents are tested to ensure they are free of endotoxins before they are used. This laboratory uses a kinetic chromogenic procedure (Kinetic QCL; Whittaker Bioproducts) for the determination of endotoxin, performed using the Thermomax Plate reader from Molecular Devices. The plate reader incorporates dedicated software for the computer analysis of all data. Samples are tested following the manufacturer's instructions, at 3 different concentrations, in triplicate. Reference Standard Endotoxin (United States Pharmacopeia) obtained at a concentration of 10,000 endotoxin units/ml, is used to generate a standard curve to determine the actual concentration of endotoxin in the samples (sensitivity =/>0.005 endotoxin units/ml).

IL-1β = assay: Monocyte release of IL-1β; format: cell-based, human; set-up: key to EFFECT: NE: No effect; NT: Not tested; INHIB: Inhibition; STIM: Stimulation; IC20: 20% Inhibitory Concentration; EC50: 50% Effective Concentration; TC: Tolerated Concentration; settings: IL1β
PAF = assay: Monocyte release of PAF; format: cell-based, human; set-up: key: NE: No effect; NT: Not tested; INHIB: Inhibition; STIM: Stimulation; IC20: 20% Inhibitory Concentration; EC50: 50% Effective Concentration; TC: Tolerated Concentration; settings: zymosan A stimulated
Method: as §3, §4

GM-CSF = assay: Monocyte release of GM-CSF; format: cell-based, human; set-up: key to EFFECT: NE: No effect; NT: Not tested; INHIB: Inhibition; STIM: Stimulation; IC20: 20% Inhibitory Concentration; EC50: 50% Effective Concentration; TC: Tolerated Concentration
[3] = test system: human peripheral blood mononuclear cells (PBMC); assay: Two-way mixed lymphocyte reaction (MLR); format: cell-based; set-up: key: NE: No effect; NT: Not tested; INHIB: Inhibition; STIM: Stimulation; IC20: 20% Inhibitory Concentration; EC50: 50% Effective Concentration; TC: Tolerated Concentration
Method: as §1, §2
Two-Way Mixed Lymphocyte Reaction (MLR):
PBMC are prepared as described for the mitogen assays, but resuspended to 2×10^6 cells/ml in complete medium. Fifty μl of cell suspension from two different individuals is then added to each well of a 96-well flat bottom tissue culture plate. An additional 100 μl of complete medium, dexamethasone or test compounds are then added to each well, the plates are incubated for 6 days at 37° C., and then pulsed with ^3 H-thymidine and harvested as previously described.

Tissue Factor = assay: Monocyte procoagulant activity (Tissue Factor); format: cell-based, human; set-up: key to EFFECT: NE: No effect; NT: Not tested; INHIB: Inhibition; STIM: Stimulation; IC20: 20% Inhibitory Concentration; EC50: 50% Effective Concentration; TC: Tolerated Concentration
Method: Monocyte Procoagulant Activity (Tissue Factor):
The adhered monocytes remaining on the 48-well tissue culture plates after removal of the supernatants above, are used to measure levels of Tissue Factor production. The cells are solubilized overnight at 4° C. in 10% Triton-X100 in PBS, diluted to 1% Triton-X100 with PBS then assayed by ELISA for Tissue Factor.

TNF-α [4] = assay: Monocyte release of TNF-α; format: cell-based, human; set-up: key to EFFECT: NE: No effect; NT: Not tested; INHIB: Inhibition; STIM: Stimulation; IC20: 20% Inhibitory Concentration; EC50: 50% Effective Concentration; TC: Tolerated Concentration; settings: TNFα
superoxide anion = assay: Monocyte superoxide anion (O2) release; format: cell-based, human; set-up: key to EFFECT: NE: No effect; NT: Not tested; INHIB: Inhibition; STIM: Stimulation; IC20: 20% Inhibitory Concentration; EC50: 50% Effective Concentration; TC: Tolerated Concentration
Method: Monocyte Superoxide Anion (O2) Release:
Monocytes are prepared as described above and resuspended to 5×10^6 /ml in HBSS containing 10 Mm HEPES, 2 g/l glucose, 0.1% BSA, Ph 7.2. To each well of a 96-well flat bottom, tissue culture plate is added 100 μl of cell suspension and 100 μl of buffer or test materials. Samples are run in quadruplicate. The plate is incubated for 60 min. at 37° C. followed by the addition of 50 μl of buffer containing cytochrome C (5 mg/ml; type VI, horse heart, Sigma) and bovine liver catalase (1500 U/ml; Sigma) in the presence of zymosan A ([…]; 750 μg/ml; Sigma). The plate is incubated an additional 120 minutes at 37° C. during which the absorbance at 550 nm is monitored using a microplate reader incorporating dedicated software for kinetic analysis (Molecular Devices; Menlo Park, Calif.).

LTB4 = assay: Monocyte release of LTB4; format: cell-based, human; set-up: key: NE: No effect; NT: Not tested; INHIB: Inhibition; STIM: Stimulation; IC20: 20% Inhibitory Concentration; EC50: 50% Effective Concentration; TC: Tolerated Concentration; settings: zymosan A stimulated
Method: as §3, §4

IL-8 = assay: Monocyte release of IL-8; format: cell-based, human; set-up: key to EFFECT: NE: No effect; NT: Not tested; INHIB: Inhibition; STIM: Stimulation; IC20: 20% Inhibitory Concentration; EC50: 50% Effective Concentration; TC: Tolerated Concentration; settings: IL8
LDH = format: cell-based; set-up: key to EFFECT: NE: No effect; NT: Not tested; INHIB: Inhibition; STIM: Stimulation; IC20: 20% Inhibitory Concentration; EC50: 50% Effective Concentration; TC: Tolerated Concentration
HIV-1 = settings: advanced HIV-1 infection and AIDS; cited from earlier work
TNF-α [5] = settings: associated with HIV-1 inhibition; cited from earlier work
latent HIV-1 = settings: monocytoid (U1) cell line; cited from earlier work

**Q.** With CCCCCCCCCCCCCCCC(=O)OCC[N+](C)(C)CCOCn1cc(C)c(=O)[nH]c1=O [Example 6, N,N-Dimethyl-N-2-(hexadecanoyloxy)ethyl-N-[N^1-(5-methyl-2,4-dioxopyrimidinyl)methoxyethyl]ammonium iodide] as the molecule, how does the EC50 (IL-6; Homo sapiens, Monocyte) read?
**A.** 5.7 µM

**Q.** What about the EFFECT (IL-6) of the same molecule?
**A.** INHIB

**Q.** What about the EFFECT [1] of the same molecule?
**A.** NE

**Q.** What about the EFFECT (MTS) of the same molecule?
**A.** TC

**Q.** What about the MNTC (MTS; mts assay, effect TC, read-out: Tolerated Concentration (EC50)) of the same molecule?
**A.** 100 µM

**Q.** What about the EC50 (monocytes; Homo sapiens, Monocyte) of the same molecule?
**A.** 47 µM

**Q.** And the EFFECT (monocytes)?
**A.** INHIB

**Q.** And the EFFECT (PGE2)?
**A.** NE

**Q.** And the EFFECT [2]?
**A.** NE

**Q.** What about the EC50 (IL-1β; Homo sapiens, Monocyte) of the same molecule?
**A.** 7.5 µM

**Q.** And the EFFECT (IL-1β)?
**A.** INHIB

**Q.** What about the EFFECT (PAF) of the same molecule?
**A.** NE

**Q.** And the EFFECT (GM-CSF)?
**A.** INHIB

**Q.** And the EC50 (GM-CSF; Homo sapiens, Monocyte)?
**A.** 12.6 µM

**Q.** What about the EFFECT [3] of the same molecule?
**A.** NE

**Q.** What about the EFFECT (Tissue Factor) of the same molecule?
**A.** INHIB

**Q.** And the EC50 (Tissue Factor; Homo sapiens, Monocyte)?
**A.** 4.3 µM

**Q.** What about the EC50 (TNF-α [4]; Homo sapiens, Monocyte) of the same molecule?
**A.** 5.5 µM

**Q.** And the EFFECT (TNF-α [4])?
**A.** INHIB

**Q.** And the EFFECT (superoxide anion)?
**A.** INHIB

**Q.** What about the EC50 (superoxide anion; Homo sapiens, Monocyte) of the same molecule?
**A.** 34 µM

**Q.** What about the EFFECT (LTB4) of the same molecule?
**A.** NE

**Q.** What about the EC50 (IL-8; Homo sapiens, Monocyte) of the same molecule?
**A.** 2.9 µM

**Q.** What about the EFFECT (IL-8) of the same molecule?
**A.** INHIB

**Q.** And the EFFECT (LDH)?
**A.** TC

**Q.** What about the MNTC (LDH; ldh assay, effect TC, read-out: Tolerated Concentration (EC50)) of the same molecule?
**A.** 100 µM

**Q.** What does the source list for O=C1CCC(N2C(=O)c3ccccc3C2=O)C(=O)N1 (centres unmarked) [Thalidomide]?
**A.** inhibition of activation of virus in PBMC, patients (HIV-1): 16 out of 17; agonist-induced TNF-α protein and mRNA production (TNF-α [5]): reduction; activation of latent HIV-1 (latent HIV-1): suppress the activation of latent HIV-1
